# Results from patent US5502202A, “Aminoalkylthiazole derivative” (Taisho Pharmaceutical Co., Ltd., priority 1991, dated 1996).
# Structures can show the parent of a compound that is named as a salt.
# What was measured:
# [1] = tested on: (+)-SKF 10047-induced stereotypical behavior; test: Test on action on (+)-SKF 10047-induced abnormal (stereotypical) behaviors; assay type: in vivo, mouse (male ICR); conditions: Mus musculus; oral, 30 min (35 min for drug C) before 30 mg/kg i.p. (+)-SKF 10047; scores over 40 min; read-out: ED25 (stereotypical behavior suppression)
# Protocol: TEST EXAMPLE 2 Test on Action on (+)-[…] Abnormal Behaviors! Male ICR mice (Nippon Charles River) aged 4 to 5 weeks were divided into groups each having 10 animals and used. Each animal was separately fed in a small transparent cage and fully familiarized with its environment. To the animals, test drugs […] % gum arabic at various concentrations were orally administered. […] Since 10 minutes thereafter, stereotypical behavior scores were measured for 40 minutes at intervals of 5 minutes. (Test drug) (Stereotypical behavior score) 0: normal behaviors 1: sniffing, standing up 2: discontinuous movement, sniffing stronger than 1 3: circling, moving backward 4: continuous circling 5: bending and stretching of limbs, head and neck The stereotypical behavior suppression ratio was determined on the basis of the sum of the scores of the test groups measured 8 times within 40 minutes by referring the sum of the score of a solvent (distilled water for injection) administered-group measured 8 times within 40 minutes as to 100%. Each ED25 value was calculated by determining the slope of a line of the suppression ratio formed by the method of least squares.
# sigma receptor [2] = target: sigma receptor (Rattus norvegicus, UniProt Q9R0C9); test: biochemical; assay type: binding, rat (male Wistar); conditions: for IC50: 2 nM [3H](+)-3-PPP, rat whole brain membrane, pH 8.0, 21° C., 90 min; for inhibition at 1 µM: pH 8, read-out: Sigma receptor Inhibition % (1 μM)
# sigma receptor (Rattus norvegicus, UniProt Q9R0C9), sequence (Q9R0C9 whole entry): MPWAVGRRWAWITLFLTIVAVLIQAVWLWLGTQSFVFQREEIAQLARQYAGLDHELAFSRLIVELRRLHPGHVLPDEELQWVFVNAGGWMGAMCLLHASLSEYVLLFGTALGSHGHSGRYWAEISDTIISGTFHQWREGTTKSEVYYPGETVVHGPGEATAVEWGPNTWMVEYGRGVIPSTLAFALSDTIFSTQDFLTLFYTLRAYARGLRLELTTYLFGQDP
# Protocol: (§1) Male Wistar rats were employed as test animals.
# (§2) Radiolabeled ^3 H! […] (-)-sulpiride was used as a compound specifically binding to dopamine D2 receptor.
# (§3) Reactions of these ^3 H! compounds binding to the corresponding receptors were performed respectively in accordance with the following methods (1) and (2) described in Molecular Pharmacology, 32, 772 (1987), Journal of Pharmacy and Pharmacology, 32, 441 (1980) and Molecular Pharmacology, 32, 820 (1987).
# (§4) After the completion of each reaction, the reaction mixture was filtered with suction into a glass filter (GF/B) and the radioactivity of the filter paper was measured with a liquid scintillation spectrometer.
# (§5) (-)-sulpiride, and the difference between the total binding (the value measured by adding no test drug) and the nonspecific binding was referred to as the specific binding.
# (§6) By reacting the ^3 H! compound at a definite concentration (2 nM) with the test drugs at various concentrations under the conditions as specified in the above (1) and (2), inhibition curves were obtained. On the basis of these inhibition curves, the concentration of each test drug causing 50% inhibition of the specific binding (IC50) was determined.
# dopamine autoreceptor = conditions: reported in literature, cited from earlier work
# sigma receptor [3] = conditions: rimcazole, cited from European Journal of Pharmacology, 155, 345 (1988); cited from earlier work
# dopamine D2 receptor [4] = conditions: rimcazole, cited; value for [3H] spiperone binding; cited from earlier work
# dopamine D2 receptor [5] = target: dopamine D2 receptor (Rattus norvegicus, UniProt P61169); test: biochemical; assay type: binding, rat (male Wistar); conditions: for IC50: 2 nM [3H](-)-sulpiride, rat striata membrane, pH 7.7, 37° C., 10 min; for inhibition at 1 µM: pH 7.7, read-out: Dopamine D2 receptor Inhibition % (1 μM)
# dopamine D2 receptor (Rattus norvegicus, UniProt P61169), sequence (P61169 whole entry): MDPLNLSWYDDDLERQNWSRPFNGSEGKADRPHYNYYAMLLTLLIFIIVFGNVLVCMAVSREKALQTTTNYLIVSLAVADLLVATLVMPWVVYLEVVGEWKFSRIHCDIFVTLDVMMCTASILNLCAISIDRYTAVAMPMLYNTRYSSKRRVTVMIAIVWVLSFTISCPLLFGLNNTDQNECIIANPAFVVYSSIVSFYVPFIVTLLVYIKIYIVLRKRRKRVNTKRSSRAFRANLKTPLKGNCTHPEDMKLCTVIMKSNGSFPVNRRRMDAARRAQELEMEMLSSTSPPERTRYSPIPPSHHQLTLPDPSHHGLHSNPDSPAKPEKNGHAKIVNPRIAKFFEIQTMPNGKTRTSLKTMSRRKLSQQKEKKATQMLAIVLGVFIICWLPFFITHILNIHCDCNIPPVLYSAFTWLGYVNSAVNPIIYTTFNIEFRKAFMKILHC
# Protocol: as §1, §2, §3
# (2) ^3 H! (-)-sulpiride binding:
# (-)-sulpiride and a test drug were incubated in 1 ml of a 50 mM Tris-HCl buffer solution (pH 7.7) at 37° C. for 10 minutes.
# as §4, §5, §6
SMILES,ED25 [1],IC50 (sigma receptor [2]),inhibition at 1 µM (sigma receptor [2]),other results
OC(CCCN1CCN(c2ncc(F)cn2)CC1)c1ccc(F)cc1 (stereo not drawn) [BMY 14802],7.6 mg/kg,–,–,–
"CCCCCN(CCCCC)CCc1sc(N)nc1-c1ccc(Br)cc1 [Test Drug A (Table 1), 2Amino-4-(4-bromophenyl)-5-(2-di-n-pentylaminoethyl)-thiazole dihydrochloride]",–,8.7 nM,93.1%,–
C=CCN1CCc2nc(N)sc2CC1 [talipexole],–,–,–,effect on dopamine nerve system (in words) (dopamine autoreceptor; by stimulating the presynaptic autoreceptor): suppresses nerve ignition and biosynthesis and liberation of dopamine; selective dopamine autoreceptor agonism (in words) (dopamine autoreceptor): selective dopamine autoreceptor agonist
C[C@@H]1CN(CCCn2c3ccccc3c3ccccc32)C[C@H](C)N1 [Rimcazole],37.9 mg/kg,–,–,IC50 (sigma receptor [3]): 1460 nM; IC50 (dopamine D2 receptor [4]): 86000 nM
"CCCCCCN(CCCCCC)CCc1sc(N)nc1-c1ccc(Br)cc1.Cl.Cl [Test Drug B (Table 1), 2-Amino-4-(4-bromophenyl)-5-(2-di-n-hexylaminoethyl)thiazole dihydrochloride]",0.019 mg/kg,1.6 nM,100%,IC50 (dopamine D2 receptor [5]): > 1000 nM; inhibition at 1 µM (dopamine D2 receptor [5]): -33.3%
"CCCCCCCCN(CCCCCCCC)CCc1sc(N)nc1-c1ccc(Br)cc1 [Test Drug C (Table 1), 2Amino-4-(4-bromophenyl)-5-(2-di-n-octylaminoethyl)-thiazole dihydrochloride]",–,3.2 nM,99.7%,IC50 (dopamine D2 receptor [5]): > 1000 nM; inhibition at 1 µM (dopamine D2 receptor [5]): -31%
"CCCN1CCCC(c2cccc(O)c2)C1 (single isomer, unassigned) [3-PPP, 3-(3-hydroxyphenyl)-N-n-propylpiperidine, reference compound]",–,24.3 nM,–,–
